From US5380761A, “Transdermal compositions” (Chinoin Gyogyszer- ES Vegyeszeti Termekek Gyara RT., priority 1991, dated 1995)

Test system: MAO-A
Assay: MAO-A inhibition in domestic pig brain nucleus free homogenate (14C-5-HT substrate)
Format: in vivo
Conditions: p. os 10 mg, 96 h
Method: In further experiments we determined in domestic pigs The MAO activity in the brain and the platelet MAO-B activity.
The experiments were carried out on female (big white) domestic pigs, weighing 25-30 kg. The pigs were caged separately during the experiments, and the same food was supplied, which was used formerly.
Blood samples were taken for the determination of MAO-B activity at: 0, 3, 6, 24, 48, 72 and 96 h. At 96 h after blood sampling the pigs were killed and the MAO-B and MAO-A activity was determined in their dissected brain.
The times of blood sampling were at: 0, 3, 6, 24 and 48 h. The transdermal preparations were removed at 24 h. […] The pigs were killed at 48 h and MAO-A and MAO-B activity of the brain was determined.
Blood samples were taken at: 0, 3, 6, 24, 48 and 72 h. The patches were removed at 48 h and the whole procedure described at group 2 was accomplished.
MAO activity was measured radiometrically according to the methods of Wurtman and Axelrod (Biochem. Pharmacol. 12. 1414-19; 1963) with a slight modification (K. Magyar in: Monoamine Oxidases and their Selective Inhibition. Ed.: K. Magyar, Pergamon Press, Akademiai Kiado, Budapest 11-21; 1980).

C#CCN(C)[C@H](C)Cc1ccccc1 [(-)-Deprenyl] was tested, and the “inhibition of MAO-activity (%) as compared to the control, brain, 14C-5-HT” value was 20.14 ± 6.0%.
